T/C data for 24 compounds are collected here from PubChem BioAssay AID330 (DTP/NCI, 2004).

This assay has as its system P388 leukemia ip, CD2F1 mice, survival T/C. The assay can be described thus: NCI In Vivo Anticancer Drug Screen. Data for tumor model P388 Leukemia (intraperitoneal) in CD2F1 (CDF1) mice. As to conditions: endpoint: median survival time, higher = longer survival. The gist of the method:
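Mice carrying the transplanted tumor received test compound or vehicle. Survival was recorded in each group, and the value is the treated-group measurement divided by that of the vehicle-treated control group.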

The mark [1] stands for this setting: dose: 60.0 mg/kg/injection, schedule: Q01DX005 (ip), vehicle: saline with Tween-80.
Setting [2] is: dose: 120.0 mg/kg/injection, schedule: Q01DX005 (ip), vehicle: saline with Tween-80.
Where [3] appears, read: dose: 240.0 mg/kg/injection, schedule: Q01DX005 (ip), vehicle: saline with Tween-80.
Setting [4] is: dose: 50.0 mg/kg/injection, schedule: Q01DX009 (ip), vehicle: saline with Tween-80.
Where [5] appears, read: dose: 100.0 mg/kg/injection, schedule: Q01DX009 (ip), vehicle: saline with Tween-80.
Setting [6] is: dose: 200.0 mg/kg/injection, schedule: Q01DX009 (ip), vehicle: saline with Tween-80.
[7] abbreviates: dose: 25.0 mg/kg/injection, schedule: Q01DX009 (ip), vehicle: saline with Tween-80.
Setting [8] is: dose: 12.5 mg/kg/injection, schedule: Q01DX009 (ip), vehicle: water.
The mark [9] stands for this setting: dose: 25.0 mg/kg/injection, schedule: Q01DX009 (ip), vehicle: water.
Where [10] appears, read: dose: 50.0 mg/kg/injection, schedule: Q01DX005 (ip), vehicle: Klucel (hydroxypropylcellulose) (HPC).
Where [11] appears, read: dose: 100.0 mg/kg/injection, schedule: Q01DX005 (ip), vehicle: Klucel (hydroxypropylcellulose) (HPC).
Setting [12] is: dose: 200.0 mg/kg/injection, schedule: Q01DX005 (ip), vehicle: Klucel (hydroxypropylcellulose) (HPC).
[13] abbreviates: dose: 50.0 mg/kg/injection, schedule: Q01DX005 (ip), vehicle: saline with Tween-80.
The mark [14] stands for this setting: dose: 100.0 mg/kg/injection, schedule: Q01DX005 (ip), vehicle: saline with Tween-80.
Where [15] appears, read: dose: 200.0 mg/kg/injection, schedule: Q01DX005 (ip), vehicle: saline with Tween-80.
The mark [16] stands for this setting: dose: 25.0 mg/kg/injection, schedule: Q01DX005 (ip), vehicle: saline with Tween-80.

Where “and” joins values, the source holds several entries; their conditions need not be identical. Equal values may be shown once. Inconclusive results and toxic doses are left out.

As for `Nc1nc(N)c(N2CCN(Cc3ccccc3)CC2)c(Cl)n1`, the T/C (dose: 15.0 mg/kg/injection, schedule: Q01DX005 (ip), vehicle: Klucel (hydroxypropylcellulose) (HPC)) is 101 % of control; the T/C (dose: 30.0 mg/kg/injection, schedule: Q01DX005 (ip), vehicle: Klucel (hydroxypropylcellulose) (HPC)) is 99 % of control; the T/C (dose: 60.0 mg/kg/injection, schedule: Q01DX005 (ip), vehicle: Klucel (hydroxypropylcellulose) (HPC)) is 99 % of control and 104 % of control.

As to `CCOC(=O)C1=NN(c2ccccc2)C(C(N)=O)C1` (centres undefined), the T/C is 100 % of control under setting [1], 101 % of control under setting [2] and 101 % of control under setting [3].

Consider `COc1ccc(CCN2C(=O)C(=O)N(c3cccc4c(N5C(=O)C(=O)N(CCc6ccc(OC)c(OC)c6)C5=O)cccc34)C2=O)cc1OC`, for which the T/C is 95 % of control (dose: 50.0 mg/kg/injection, schedule: Q01DX009 (ip), vehicle: Klucel (hydroxypropylcellulose) (HPC)); 93 % of control (dose: 100.0 mg/kg/injection, schedule: Q01DX009 (ip), vehicle: Klucel (hydroxypropylcellulose) (HPC)); 96 % of control (dose: 200.0 mg/kg/injection, schedule: Q01DX009 (ip), vehicle: Klucel (hydroxypropylcellulose) (HPC)).

Consider `Oc1ccccc1/C=N/C(/N=C/c1ccccc1O)c1ccccc1O`, for which the T/C reads like this: under setting [4], 100 % of control; under setting [5], 101 % of control; under setting [6], 100 % of control.

Consider `O=C(SCN1CCCCC1)c1ccccc1`, for which the T/C is, setting by setting: under setting [7], 100 % of control; under setting [4], 113 % of control; under setting [5], 109 % of control.

For the compound `Cn1c(=O)[nH]c2nncnc2c1=O`, the T/C runs as follows: (dose: 2.0 mg/kg/injection, schedule: Q01DX009 (ip), vehicle: water) 101 % of control; (dose: 4.0 mg/kg/injection, schedule: Q01DX009 (ip), vehicle: water) 100 % of control; (dose: 8.0 mg/kg/injection, schedule: Q01DX009 (ip), vehicle: water) 104 % of control; under setting [8], 99 % of control; (dose: 16.0 mg/kg/injection, schedule: Q01DX009 (ip), vehicle: water) 101 % of control; under setting [9], 117 % of control. In addition, the T/C was 104 % of control (dose: 32.0 mg/kg/injection, schedule: Q01DX009 (ip), vehicle: water); 123 % of control (dose: 64.0 mg/kg/injection, schedule: Q01DX009 (ip), vehicle: water); 97 % of control (dose: 375.0 micrograms/kg/injection, schedule: Q01DX009 (ip), vehicle: saline); 100 % of control (dose: 750.0 micrograms/kg/injection, schedule: Q01DX009 (ip), vehicle: saline); 91 % of control (dose: 1500.0 micrograms/kg/injection, schedule: Q01DX009 (ip), vehicle: saline); 100 % of control (dose: 3000.0 micrograms/kg/injection, schedule: Q01DX009 (ip), vehicle: saline).

As for `CNc1cccc(NC)c1`, the T/C reads like this: under setting [8], 105 % of control; under setting [9], 112 % of control.

With `COc1cc(NCCCC2CCCCN2)c2ncccc2c1OC` (centres undefined), the T/C is 103 % of control (dose: 6.25 mg/kg/injection, schedule: Q01DX005 (ip), vehicle: saline) and 101 % of control (dose: 12.5 mg/kg/injection, schedule: Q01DX005 (ip), vehicle: saline).

As to `COc1cccc2c1C(=O)c1c(O)c3c(c(O)c1C2=O)C[C@@](O)(C(=O)CO)C[C@@H]3OC1CC(NC(=O)C(N)CC(C)C)C(O)C(C)O1` (some centres undefined), the T/C is 105 % of control (dose: 3.12 mg/kg/injection, schedule: Q04DX003 (ip), vehicle: saline); 118 % of control (dose: 6.25 mg/kg/injection, schedule: Q04DX003 (ip), vehicle: saline); 150 % of control (dose: 25.0 mg/kg/injection, schedule: Q04DX003 (ip), vehicle: saline).

For the compound `Cc1nc2c(cnn2C)c(=O)[nH]1`, the T/C was 96 % of control under setting [10], 98 % of control under setting [11] and 97 % of control under setting [12].

On to `O=C1Sc2ccccc2C(=O)N2CCCC12` (centres undefined), for which the T/C under setting [1] was 97 % of control, the T/C under setting [2] is 99 % of control and the T/C under setting [3] was 100 % of control.

On to `Oc1cccnc1Cl`, for which the T/C was 110 % of control under setting [7]; 114 % of control under setting [4]; 114 % of control under setting [5]; 102 % of control (dose: 100.0 mg/kg/injection, schedule: Q01DX009 (ip), vehicle: saline); 119 % of control under setting [6]; 101 % of control (dose: 200.0 mg/kg/injection, schedule: Q01DX009 (ip), vehicle: saline). Also, the T/C (dose: 400.0 mg/kg/injection, schedule: Q01DX009 (ip), vehicle: saline) is 108 % of control.

Regarding `O=C(O)C1CCC(=O)N1Cc1c[nH]c2ccccc12` (centres undefined), the T/C by setting is: under setting [1], 98 % of control; under setting [2], 94 % of control; under setting [3], 97 % of control.

Regarding `C=C1CCC2C(C)(CO)C(O)CCC2(C)C1C/C=C1\C(=O)OCC1O` (centres undefined), the T/C (dose: 25.0 mg/kg/injection, schedule: Q01DX005 (ip), vehicle: Klucel (hydroxypropylcellulose) (HPC)) is 109 % of control; the T/C under setting [10] was 108 % of control; the T/C under setting [11] is 114 % of control; the T/C under setting [12] is 117 % of control.

Consider `OCc1nccn1Cc1ccccc1`, for which the T/C was 115 % of control (dose: 50.0 mg/kg/injection, schedule: Q01DX001 (ip), vehicle: saline) and 95 % of control (dose: 100.0 mg/kg/injection, schedule: Q01DX001 (ip), vehicle: saline).

As for `Cc1cc(=NCCCN(C)C)c2ccc3c(ccc4c(=NCCCN(C)C)cc(C)n(O)c43)c2n1O`, the T/C runs as follows: (dose: 6.25 mg/kg/injection, schedule: Q01DX009 (ip), vehicle: water) 106 % of control and 111 % of control; (dose: 12.5 mg/kg/injection, schedule: Q01DX009 (ip), vehicle: distilled water + alcohol) 102 % of control; under setting [8], 100 % of control and 103 % of control and 109 % of control; (dose: 25.0 mg/kg/injection, schedule: Q01DX009 (ip), vehicle: distilled water + alcohol) 102 % of control; under setting [9], 108 % of control and 116 % of control; (dose: 50.0 mg/kg/injection, schedule: Q01DX009 (ip), vehicle: distilled water + alcohol) 105 % of control.

Turning to `O=c1[nH]c(=S)nc2nc[nH]n12`, the T/C under setting [7] is 100 % of control; the T/C under setting [13] is 98 % of control; the T/C under setting [4] was 97 % of control; the T/C under setting [14] is 100 % of control; the T/C under setting [5] is 100 % of control; the T/C under setting [15] was 103 % of control. Further, under setting [6], the T/C is 106 % of control.

Turning to `O=C1c2cc3c(cc2C(=O)c2cc(-c4ccccc4)c(-c4ccccc4)cc21)OCO3`, the T/C is, setting by setting: under setting [1], 92 % of control; under setting [2], 100 % of control; under setting [3], 98 % of control and 102 % of control.

Take `CC(=O)OC1C(c2ccc(Cl)cc2)CC2CCC1N2C` (centres undefined): the T/C is, setting by setting: under setting [13], 103 % of control; under setting [14], 102 % of control.

Regarding `COc1ccc(-n2c(SC)nccc2=O)cc1`, the T/C (dose: 100.0 mg/kg/injection, schedule: Q04DX003 (ip), vehicle: Klucel (hydroxypropylcellulose) (HPC)) was 100 % of control and the T/C (dose: 200.0 mg/kg/injection, schedule: Q04DX003 (ip), vehicle: Klucel (hydroxypropylcellulose) (HPC)) is 99 % of control.

Regarding `c1ccc2c(c1)oc1cc3c(cc12)n1nnnc1c1cccn31`, the T/C is 92 % of control under setting [16], 97 % of control under setting [13], 100 % of control under setting [14] and 100 % of control under setting [15].

`CCCCN(Cc1c(O)ccc2ccccc12)Cc1c(O)ccc2ccccc12`: the T/C was 95 % of control under setting [10], 97 % of control under setting [11] and 94 % of control under setting [12].

For the compound `COc1ccc(C(C)c2cc(N=O)c(OC)cc2O)cc1` (centres undefined), the T/C by setting is: (dose: 12.5 mg/kg/injection, schedule: Q01DX005 (ip), vehicle: saline with Tween-80) 91 % of control; under setting [16], 94 % of control; under setting [13], 92 % of control and 96 % of control.

As to `N#CC(OC(OC(C#N)c1ccccc1)c1ccccc1)c1ccccc1` (centres undefined), the T/C runs as follows: under setting [1], 98 % of control; under setting [2], 94 % of control; under setting [3], 89 % of control.
